Starred links: 1 amine or outer side, 2 acyl side, 3 side chain; linkers in the order of their positions; H or OH if unused. Residues, ends and D or L forms follow the SMILES beside them. Groups on a side chain read outwards from the residue. *: point of attachment. Glutaryl = O=C(CCCC(=O)[*:2])[*:1]; NHNH2 = NN*
How the values were obtained:
Assay type in all cases: cell-based
Hek293 cells = experiment: RLuc pDNA delivery, robotic library screening, Hek293
A549 cells = experiment: RLuc pDNA delivery, robotic library screening, A549
Description: Cells were seeded in a 96 well plate the day before the experiment at a concentration of 60,000 cell/mL (100 μL/w) in DMEM+10% FBS+1% Gln-Abt. For robotic library screening, the delivery of pDNA encoding for the expression of Renilla luciferase gene (RLuc, pRL-CMV (Promega, #E2261)) in six different cell lines was performed. Amphihilic molecule stock solutions in DMSO were diluted with DMEM and freshly mixed with pDNA stock solutions in DMEM prior to transfection experiments, to afford several complexes at different amphiphile concentration (2-10 μM) while maintaining a constant final pDNA concentration of 2 ng/μL. The mixture was shaken for 30 min at room temperature before the addition to the cells. The cell medium was aspirated, and cells were washed twice with PBS. Finally, 50 μL of the complex's solution were added to the cells and incubated for 4 h. After the incubation, the medium was replaced by 100 μL of fresh DMEM supplemented with 10% FBS. 72 hours after transfection the DMEM was removed, cells were washed once with HBSS and 90 μL of HBSS were added to each well. Cells were incubated at 37° C. for 30 minutes. Then basal luminescence levels were read in a plate reader. Immediately, 10 μL of coelenterazine h in HBSS were added to each well (5 μM final concentration) and cells were incubated at 37° C. for 10 minutes. Finally, the total luminescence measurement of the plates was performed. Amphiphile transfection efficiency was compared and normalized to Lipofectamine® 2000 efficiency (value of 1 in Tables 1-5 and 7; bold numbers). All experiments were done in triplicate.
(§1) Tables 1-7: RLuc (pDNA) or EGFP (mRNA) expression levels were normalized to Lipofectamine reagents (value=1) and expressed as fold-times signal increase. In the case of siRNA, the siRNA treated cells fluorescence was compared with siMOCK control fluorescence, while Cas9-RNP mediated knockout was measured against the fluorescence of untreated cells. In both siRNA and Cas9-RNP, values are expressed as % fluorescence reduction. Amphiphile concentration was 5 μM in all cases. All experiments were performed in triplicate.
Tables 8-13 show the mean (triplicates) luminescent intensity (RLU) measured after the transfection of RLuc pDNA by different amphiphiles at different concentrations in a variety of cell lines. Background luminescence values, accounted by untransfected control cells, were subtracted for processing.

HCT116 cells = experiment: EGFP mRNA delivery, robotic library screening, HCT116
Description: Cells were seeded in a 96 well plate the day before the experiment at a concentration of 50,000 cell/mL (100 μL/w) in DMEM+10% FBS+1% Gln-Abt. For robotic library screening, the delivery of EGFP-mRNA (from TriLink, fully substituted with 5-methoxyuridine, capped and polyadenylated; TriLink, CleanCap® EGFP mRNA (5moU), ref. L-7201) in six different cell lines was performed. Amphiphilic molecule stock solutions were prepared in DMSO as described above and diluted in DMEM to afford a range of concentrations. The solutions of EGFP-mRNA/amphiphilic molecule complexes were freshly prepared prior to the transfection experiments. 35 μL of the corresponding amphiphile were added to 10 μL of a solution of EGFP-mRNA at 10 ng/μL in DMEM. The mixture was shaken for 30 min at room temperature before the addition to the cells. The cell medium was aspirated, and cells were washed with PBS twice. Cells were covered with 39 μL of DMEM and 11 μL of the complex's solution were added to the cells and incubated for 4 h (final concentration of peptide=2.5, 5 and 10 μM; final concentration of EGFP-mRNA=25 ng/well). After the incubation, the medium was replaced by 100 μL of fresh DMEM supplemented with 10% FBS. The total EGFP fluorescence was quantified after 72 h in a well plate reader. Amphiphile transfection efficiency was compared and normalized to Lipofectamine® MessengerMax efficiency (value of 1 in Tables 1-5 and 7; double underlined numbers). All experiments were done in triplicate.
as §1
Tables 14-19 show the mean (triplicates) fluorescence intensity measured after the transfection of EGFP mRNA by different amphiphiles at different concentrations in a variety of cell lines. Background fluorescence values, accounted by untreated control cells, were subtracted for processing.

Compound	mean luminescent intensity (RLuc pDNA) (Hek293 cells; Myristoleyl, 5 μM) [RLU]	mean luminescent intensity (RLuc pDNA) (Hek293 cells; Myristoleyl, 10 μM) [RLU]	mean luminescent intensity (RLuc pDNA) (Hek293 cells; Myristoleyl, 15 μM) [RLU]	mean luminescent intensity (RLuc pDNA) (Hek293 cells; Palmitoleyl, 5 μM) [RLU]	mean luminescent intensity (RLuc pDNA) (Hek293 cells; Petroselinyl, 5 μM) [RLU]	mean luminescent intensity (RLuc pDNA) (Hek293 cells; Petroselinyl, 10 μM) [RLU]	mean luminescent intensity (RLuc pDNA) (A549 cells; Myristoleyl, 5 μM) [RLU]	mean luminescent intensity (RLuc pDNA) (A549 cells; Myristoleyl, 10 μM) [RLU]	mean luminescent intensity (RLuc pDNA) (A549 cells; Myristoleyl, 15 μM) [RLU]	mean luminescent intensity (RLuc pDNA) (A549 cells; Palmitoleyl, 10 μM) [RLU]	mean luminescent intensity (RLuc pDNA) (A549 cells; Palmitoleyl, 15 μM) [RLU]	mean fluorescence intensity (EGFP mRNA) (HCT116 cells; Myristoleyl, 2.5 μM)	mean fluorescence intensity (EGFP mRNA) (HCT116 cells; Myristoleyl, 5 μM)	mean fluorescence intensity (EGFP mRNA) (HCT116 cells; Petroselinyl, 2.5 μM)	mean fluorescence intensity (EGFP mRNA) (HCT116 cells; Petroselinyl, 5 μM)	mean fluorescence intensity (EGFP mRNA) (HCT116 cells; Petroselinyl, 10 μM)	mean luminescent intensity (RLuc pDNA) (Hek293 cells; Dodecanal, 10 μM) [RLU]	mean luminescent intensity (RLuc pDNA) (Hek293 cells; Dodecanal, 15 μM) [RLU]	mean fluorescence intensity (EGFP mRNA) (HCT116 cells; Dodecanal, 5 μM)	mean luminescent intensity (RLuc pDNA) (A549 cells; Dodecanal, 15 μM) [RLU]	also measured
CC(=O)N[C@@H](CCCNC(=N)N)C(=O)N[C@@H](CCCCNC(=O)CCCC(=O)NN)C(=O)N[C@@H](Cc1c[nH]cn1)C(=O)N[C@@H](CCCNC(=N)N)C(=O)N[C@@H](CCCCNC(=O)CCCC(=O)NN)C(=O)N[C@@H](CCCCNC(=O)CCCC(=O)NN)C(=O)N[C@@H](Cc1c[nH]cn1)C(N)=O [7.3(L-H), Ac-RK*HRK*K*H-NH2] (Ac-RK([Glutaryl-NHNH2])HRK([Glutaryl-NHNH2])K([Glutaryl-NHNH2])H-NH2)	330418	145597	36468	294438	286371	237379	184442	147873	31551	140079	105643	76926	19128	5653	19656	9118					mean luminescent intensity (RLuc pDNA) (Hek293 cells; Palmitoleyl, 10 μM): 191190 RLU; mean luminescent intensity (RLuc pDNA) (Hek293 cells; Palmitoleyl, 15 μM): 87323 RLU; mean luminescent intensity (RLuc pDNA) (Hek293 cells; Petroselinyl, 15 μM): 157061 RLU; mean luminescent intensity (RLuc pDNA) (A549 cells; Oleyl, 5 μM): 4031 RLU; mean luminescent intensity (RLuc pDNA) (A549 cells; Palmitoleyl, 5 μM): 109148 RLU; mean luminescent intensity (RLuc pDNA) (A549 cells; Petroselinyl, 5 μM): 94011 RLU; mean luminescent intensity (RLuc pDNA) (A549 cells; Petroselinyl, 10 μM): 139603 RLU; mean luminescent intensity (RLuc pDNA) (A549 cells; Petroselinyl, 15 μM): 6719 RLU; pDNA delivery, times better than Lipofectamine 2000 (A549 cells; palmitoleyl or petroselinyl aldehydes): 30 times; mean fluorescence intensity (EGFP mRNA) (HCT116 cells; Palmitoleyl, 2.5 μM): 32455; mean fluorescence intensity (EGFP mRNA) (HCT116 cells; Palmitoleyl, 5 μM): 26406; mean fluorescence intensity (EGFP mRNA) (HCT116 cells; Palmitoleyl, 10 μM): 6504
Ac-RK*LRRLLRK*-NH2 (Ac-RK(NHNH2)LRRLLRK(NHNH2)-NH2; not fully specified; printed as Ac-RK*LRRLLRK*-NH2; also: K*2,K*9: native or modified lysine (ε-amide to a linker)) [Peptide 9.2]							10365	3358	1684			1498			662		32272	18149	438		mean luminescent intensity (RLuc pDNA) (Hek293 cells; Oleyl, 15 μM): 435 RLU; mean luminescent intensity (RLuc pDNA) (A549 cells; Dodecanal, 10 μM): 1215 RLU
Ac-RK*LRRK*L-NH2 (Ac-RK(NHNH2)LRRK(NHNH2)L-NH2; not fully specified; printed as Ac-RK*LRRK*L-NH2; also: K*2,K*6: native or modified lysine (ε-amide to a linker)) [Peptide 7.2]	5382	24464	8475				5449	5343	2367			4952	1710				8723	11358	672	208	mean luminescent intensity (RLuc pDNA) (A549 cells; Dodecanal, 5 μM): 302 RLU; mean fluorescence intensity (EGFP mRNA) (HCT116 cells; Dodecanal, 2.5 μM): 613; mean fluorescence intensity (EGFP mRNA) (HCT116 cells; Dodecanal, 10 μM): 1077
Ac-RRLK*RLK*RRLK*RL-NH2 [Peptide 13.3]	368875							2097		2647	2262	2744		1178	1100	824				1174	mean luminescent intensity (RLuc pDNA) (Hek293 cells; Dodecanal, 5 μM): 295675 RLU; mean luminescent intensity (RLuc pDNA) (A549 cells; Dodecanal, 10 μM): 964 RLU; mean luminescent intensity (RLuc pDNA) (A549 cells; Oleyl, 10 μM): 1248 RLU; mean luminescent intensity (RLuc pDNA) (A549 cells; Oleyl, 15 μM): 1919 RLU; mean luminescent intensity (RLuc pDNA) (A549 cells; Petroselinyl, 15 μM): 2205 RLU; mean fluorescence intensity (EGFP mRNA) (HCT116 cells; Palmitoleyl, 2.5 μM): 1623
Ac-RK*LRK*K*L-NH2 (Ac-RK(NHNH2)LRK(NHNH2)K(NHNH2)L-NH2; not fully specified; printed as Ac-RK*LRK*K*L-NH2; also: K*2,K*5,K*6: native or modified lysine (ε-amide to a linker)) [Peptide 7.3]	94318	179823		2088	7479	2932				3679		35826	2060	6670	1464	1093	11481	13690	6749	777	mean luminescent intensity (RLuc pDNA) (A549 cells; Dodecanal, 5 μM): 483 RLU; mean luminescent intensity (RLuc pDNA) (A549 cells; Petroselinyl, 5 μM): 4314 RLU; mean fluorescence intensity (EGFP mRNA) (HCT116 cells; Dodecanal, 2.5 μM): 5668; mean fluorescence intensity (EGFP mRNA) (HCT116 cells; Dodecanal, 10 μM): 1139

Source: US20250304623A1, “PEPTIDES FOR INTRACELLULAR DELIVERY” (UNIVERSIDADE DE SANTIAGO DE COMPOSTELA, priority 2022, published 2025)
